Drawing on US5945430A, “Aminooxyamide tricyclic inhibitors of farnesyl-protein transferase” (Schering Corporation, priority 1998, dated 1999), this text covers IC50 for three compounds.

The target of assay [1] is T1, H-ras FPT (Ras-CVLS farnesylation by partially purified rat brain farnesyl protein transferase (FPT)) (Rattus norvegicus, UniProt Q02293+Q04631).
T1 construct: partially purified rat brain farnesyl protein transferase (FPT); from tissue; host or cells: rat brain, partially purified
In words: FPT IC50 (inhibition of farnesyl protein transferase, in vitro enzyme assay). The class given is biochemical.

Assay [2] concerns Ras processing in COS cells. In words: COS IC50, cell-based assay: COS cells activity inhibition of Ras processing. As for the experimental part:
2. Cell-based assay. COS IC50 values refer to the COS cells activity inhibition of Ras processing, are determined by the methods disclosed in […] or WO 95/10516.

`O=C(NOCC(=O)N1CCC([C@H]2c3ncc(Br)cc3CCc3cc(Cl)cc(Br)c32)CC1)c1ccccc1` [Example 1] yielded an IC50 in assay [1] of 0.027 µM. This lies in the double-digit nanomolar range.
Regarding `O=C(CO/N=C/c1cc[n+]([O-])cc1)N1CCC([C@H]2c3ncc(Br)cc3CCc3cc(Cl)cc(Br)c32)CC1` [Example 6], half-maximal inhibition in assay [2] (IC50) required 0.69 µM.
Regarding `NOCC(=O)N1CCC([C@H]2c3ncc(Br)cc3CCc3cc(Cl)cc(Br)c32)CC1` [Example 15, (+)-1-[(aminooxy)acetyl]-4-(3,10-dibromo-8-chloro-6,11-dihydro-5H-benzo[5,6]cyclohepta[1,2-b]pyridin-11(R)-yl)piperidine], the IC50 in assay [1] stood at 0.032 µM.
